Test results reported in PMC3416781, “Functional Characterizations of Chemosensory Proteins of the Alfalfa Plant Bug Adelphocoris lineolatus Indicate Their Involvement in Host Recognition” (PLoS ONE, 2012).
Where “and” joins values, the source holds several entries; their conditions need not be identical. Identical values can stand only once. Like-named read-outs stand apart in the source and are kept apart here.

Tests used:
[1] = molecular target: AlinCSP1 (Adelphocoris lineolatus, UniProt J7EJ71); assay: biochemical; assay type: binding
Procedure: (§1) Fluorescence binding assays were performed on an F-380 fluorescence spectrophotometer (Tianjin, China) in a 1 cm light path quartz cuvette. The slit width used for excitation and emission was both 10 nm. The fluorescent probe N-phenyl-1-naphthylamine (1-NPN) was dissolved in methanol with a 1 mM stock solution. 1-NPN was excited at 337 nm and emission spectra were recorded between 390 nm and 530 nm.
(§2) All values reported were obtained from three independent measurements.
(§3) For determining binding constants, the intensity values corresponding to the maximum fluorescence emission were plotted against free ligand concentration. Bound ligand was evaluated from the values of fluorescence intensity assuming the protein was 100% active, with a stoichiometry of 1∶1 protein:ligand at saturation. The curves were linearized using Scatchard Plot.

[2] = molecular target: AlinCSP2 (Adelphocoris lineolatus, UniProt E7BLG5); assay: biochemical; assay type: binding
Procedure: as §1, §2, §3

[3] = molecular target: AlinCSP3 (Adelphocoris lineolatus, UniProt E7BLG4); assay: biochemical; assay type: binding
Procedure: as §1, §2, §3

[4] = tested on: A. lineolatus antennae; assay: Electroantennogram (EAG) recordings; parameters: species or system Adelphocoris lineolatus; details: normalized to 2-octanone; for EAG response, male versus female antennae: Student t-test between sexes; for EAG response in words: male and female adult antennae, 10% (v/v) in paraffin oil, good ligand = more than 50% of 2-octanone response
Description: Electrophysiological (EAG) recordings from each sex of adult individuals were made using Ag-AgCl glass pipette electrodes filled with 3 M KCl solution [69], [70]. The insects were anaesthetized by chilling, the antenna was amputated at the base and the tip of the antenna was cut off. The excised antenna was mounted between the electrodes by one teardrop of Spectra R360 electrically conductive gel (Syntech, Netherlands). The base of the antenna was connected to the reference electrode, while the terminal of tip-cut off antenna was connected to the recording electrode. An air stimulus controller CS-55 (Syntech, Netherlands) was used for air and chemical stimulants delivery with a constant flow of 10 ml/second flowed continuously over the antenna through the open end of the glass tube, which was positioned 1 cm from the antenna.
Twenty microliters of tested chemicals (100 µl/ml, 10% (v/v) dilution in paraffin oil except the hexadecanoic acid dissolved in hexane with 100 µg/ml) were applied to filter paper strips (1.5 cm×4 cm, Whatman No.1), and the solvent was allowed to evaporate for 30 sec before the paper strip was inserted into the glass Pasteur pipette cartridge (10 cm long, Fisher Scientific, Pittsburgh, Pennsylvania, USA). The chemicals were tested randomly, stimulus duration time was 0.5 second and an interval of at least 30 seconds was taken between stimulations for antennal recovery. Chemical odorants used for the EAG recordings are the same as used in the binding assays. […] The paraffin oil (Fluka, Buchs, Switzerland) was used to dissolve the chemicals and treated as control compound [71]. Each chemical was tested against six individual male and female antennae, and each antenna was tested three times. The signals were passed through a high impedance amplifier (CS-05 model, Syntech, the Netherlands), EAG responses were initially measured in millivolts (peak height of depolarization) and then converted to normalized responses by the Syntech EAG 2000 program (Syntech, the Netherlands). Response to the solvent control was subtracted from all normalized response and the normalized EAG responses were expressed as a percentage to the reference compound response. All results are presented as mean (±SE) normalized EAG responses. EAG responses between male and female individuals were compared with the Student t-test using SAS software.

[5] = 1-NPN and protein at 2 µM, 50 mM Tris-HCl pH 7.4, KD calculated from IC50, mean of three measurements, read-out: KD (µM) AlinCSP1
[6] = 1-NPN and protein at 2 µM, 50 mM Tris-HCl pH 7.4, KD calculated from IC50, mean of three measurements, read-out: KD (µM) AlinCSP2
[7] = 1-NPN and protein at 2 µM, 50 mM Tris-HCl pH 7.4, KD calculated from IC50, mean of three measurements, read-out: KD (µM) AlinCSP3
[8] = u.d. = KD not calculated because IC50>50 µM, read-out: KD (µM) AlinCSP1, given as u.d.
[9] = u.d. = KD not calculated because IC50>50 µM, read-out: KD (µM) AlinCSP2, given as u.d.
[10] = u.d. = KD not calculated because IC50>50 µM, read-out: KD (µM) AlinCSP3, given as u.d.
[11] = KD (µM) AlinCSP1, 1-NPN and protein at 2 µM, 50 mM Tris-HCl pH 7.4, KD calculated from IC50, mean of three measurements
[12] = KD (µM) AlinCSP2, 1-NPN and protein at 2 µM, 50 mM Tris-HCl pH 7.4, KD calculated from IC50, mean of three measurements
[13] = KD (µM) AlinCSP3, 1-NPN and protein at 2 µM, 50 mM Tris-HCl pH 7.4, KD calculated from IC50, mean of three measurements
[14] = KD (µM) AlinCSP1, given as u.d., u.d. = KD not calculated because IC50>50 µM
[15] = KD (µM) AlinCSP2, given as u.d., u.d. = KD not calculated because IC50>50 µM
[16] = KD (µM) AlinCSP3, given as u.d., u.d. = KD not calculated because IC50>50 µM

Chain of AlinCSP3 (E7BLG4 entry or part of it): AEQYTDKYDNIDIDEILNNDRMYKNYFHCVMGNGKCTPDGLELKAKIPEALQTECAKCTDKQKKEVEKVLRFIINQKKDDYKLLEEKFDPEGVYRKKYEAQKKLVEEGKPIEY
Chain of AlinCSP1 (J7EJ71 entry or part of it): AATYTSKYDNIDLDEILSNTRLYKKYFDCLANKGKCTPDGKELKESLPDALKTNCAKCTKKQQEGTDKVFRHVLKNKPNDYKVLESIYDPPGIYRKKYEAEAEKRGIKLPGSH
Chain of AlinCSP2 (E7BLG5 entry or part of it): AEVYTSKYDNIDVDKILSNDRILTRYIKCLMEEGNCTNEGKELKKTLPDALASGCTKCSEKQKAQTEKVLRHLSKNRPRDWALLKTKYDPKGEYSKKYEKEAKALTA

| Compound | Kd [1, 5] | Kd [2, 6] | Kd [3, 7] | Kd [1, 8] | Kd [2, 9] | Kd [3, 10] | other results |
| --- | --- | --- | --- | --- | --- | --- | --- |
| CC/C=C\CCOC(C)=O [(Z)-3-Hexenyl acetate] | 7.37 ± 2.49 µM | 15.8 ± 1.68 µM | 12.2 ± 1.82 µM | – | – | – | EAG response, male versus female antennae [4]: significantly higher EAG responses from female antennae than from male antennae; EAG response in words [4]: only elicited a high EAG response in the female |
| (+)-α-Pinene | 31.7 ± 0.98 µM | 30.6 ± 0.71 µM | 27.2 ± 1.02 µM | – | – | – | – |
| CCCCCCC(C)=O [2-Octanone] | – | – | 39.5 ± 1.91 µM | > 50 µM | > 50 µM | – | – |
| CCCCCC(C)=O [2-Heptanone] | 42.9 ± 2.89 µM | – | 41.2 ± 2.56 µM | – | > 50 µM | – | EAG response, male versus female antennae [4]: significantly higher EAG responses from female antennae than from male antennae |
| CCCCCCCCCCCC=O [Dodecanal] | – | – | – | > 50 µM | > 50 µM | > 50 µM | – |
| C=C(C)[C@H]1CC=C(C)CC1 [Limonene] | – | – | – | > 50 µM | > 50 µM | > 50 µM | – |
| CC1(C)[C@@H]2CC[C@@]1(C)[C@H](O)C2 (racemic) [Isoborneol] | – | – | – | – | – | – | Kd [1, 11]: 24.2 ± 1.42 µM; Kd [2, 12]: 21.1 ± 2.04 µM; Kd [3, 13]: 28.6 ± 1.68 µM |
| CC/C=C\CCO [(Z)-3-Hexen-1-ol] | – | – | – | – | – | – | Kd [1, 11]: 12.5 ± 2.32 µM; Kd [2, 12]: 15.1 ± 1.79 µM; Kd [3, 13]: 16.3 ± 1.98 µM; EAG response in words [4]: elicited significant antennal responses from both male and female |
| CCCCCCCCCC=O [Decanal] | – | 45.9 ± 1.71 µM | 42.3 ± 2.76 µM | > 50 µM | – | – | – |
| C=C/C(C)=C\CC=C(C)C [(Z)−ocimene] | 28.6 ± 1.71 µM | 25.1 ± 0.93 µM | 22.2 ± 1.01 µM | – | – | – | – |
| CCCCC=O [Valeraldehyde] | 17.6 ± 2.54 µM | 13.4 ± 2.41 µM | 11.2 ± 1.52 µM | – | – | – | EAG response in words [4]: elicited significant antennal responses from both male and female |
| CC(C)=CCC/C(C)=C/C=O [Citral] | – | – | – | – | – | – | Kd [1, 14]: > 50 µM; Kd [2, 15]: > 50 µM; Kd [3, 16]: > 50 µM |
| C=CC(C)(O)CCC=C(C)CCC=C(C)C (mixture of isomers) [Nerolidol] | 28.1 ± 1.26 µM | 24.4 ± 1.36 µM | 22.4 ± 1.33 µM | – | – | – | – |
| c1ccc2[nH]ccc2c1 [Indole] | – | – | – | – | – | – | Kd [1, 11]: 27.1 ± 1.91 µM; Kd [2, 12]: 22.4 ± 2.01 µM; Kd [3, 13]: 24.6 ± 2.16 µM |
| CCC/C=C/C=O [(E)-2-Hexen-1-al] | – | – | – | – | – | – | Kd [1, 11]: 11.3 ± 1.07 µM; Kd [2, 12]: 13.2 ± 2.05 µM; Kd [3, 13]: 14.5 ± 2.59 µM; EAG response in words [4]: elicited significant antennal responses from both male and female |
| CCCCOC(=O)CCC [Butyl butyrate] | – | – | – | > 50 µM | > 50 µM | > 50 µM | – |
| CCCCCCC(C)O (stereo not drawn) [2-Octanol] | – | 39.5 ± 2.11 µM | – | > 50 µM | – | > 50 µM | – |
| CCCCCCOC(=O)CCC [Hexyl butyrate] | 46.8 ± 1.85 µM | – | – | – | > 50 µM | > 50 µM | – |
| CC1=CC=C(C(C)C)CC1 [α-Terpinene] | – | – | – | – | – | – | Kd [1, 14]: > 50 µM; Kd [2, 15]: > 50 µM; Kd [3, 13]: 45.5 ± 2.06 µM |
| CCCCOC(C)=O [Butyl acetate] | – | – | – | – | – | – | Kd [1, 11]: 26.6 ± 1.87 µM; Kd [2, 12]: 41.2 ± 2.89 µM; Kd [3, 13]: 34.5 ± 2.79 µM |

| Compound | Kd [1, 5] | Kd [2, 6] | Kd [3, 7] | Kd [1, 8] | Kd [2, 9] | Kd [3, 10] | other results |
| --- | --- | --- | --- | --- | --- | --- | --- |
| O=Cc1ccccc1 [Benzaldehyde] | – | – | – | – | – | – | Kd [1, 11]: 27.5 ± 1.96 µM; Kd [2, 12]: 28 ± 2.11 µM; Kd [3, 13]: 24 ± 1.76 µM |
| CCCCC [Pentane] | 42.2 ± 1.95 µM | 39.5 ± 2.54 µM | 35.6 ± 2.61 µM | – | – | – | – |
| CCCCCCCCCOC(C)=O [Nonyl acetate] | 23.6 ± 1.6 µM | 29.2 ± 2.19 µM | 46.5 ± 3.07 µM | – | – | – | – |
| CCCCCCCCC=O [Nonanal] | 43.6 ± 1.11 µM | – | – | – | > 50 µM | > 50 µM | – |
| C=CC(=O)OCCCC [Butyl acrylate] | – | – | – | – | – | – | Kd [1, 11]: 38.5 ± 1.69 µM; Kd [2, 12]: 28.1 ± 2.37 µM; Kd [3, 13]: 40.2 ± 2.88 µM |
| CCCCCCCCCCCCCC [Tetradecane] | – | – | 46.2 ± 2.76 µM | > 50 µM | > 50 µM | – | – |
| CCCCCCOC(=O)CCCCC [Hexyl hexanoate] | 44.7 ± 2.38 µM | – | 43.8 ± 1.98 µM | – | > 50 µM | – | – |
| Cc1cccc(C(=O)O)c1C [2,3-Dimethylbenzoic acid] | – | – | – | > 50 µM | > 50 µM | > 50 µM | – |
| CCCCCCCCCC(C)O (stereo not drawn) [2-Undecanol] | – | – | – | > 50 µM | > 50 µM | > 50 µM | – |
| CCCCCCCCCCCCCCO [Tetradecanol] | – | 35.8 ± 3.01 µM | – | > 50 µM | – | > 50 µM | – |
| CCCCC(CC)CO (stereo not drawn) [2-Ethyl-1-hexanol] | – | – | – | > 50 µM | > 50 µM | > 50 µM | – |
| CCCCCCC(=O)OCC [Ethyl heptanoate] | 25.3 µM and 43.2 µM | 45.3 µM and 38.3 µM | 38.3 µM and 35.3 µM | – | – | – | – |
| CCOC(=O)Cc1ccccc1 [Ethyl phenylacetate] | – | – | – | – | – | – | Kd [1, 11]: 27.3 ± 2.02 µM; Kd [2, 12]: 25.3 ± 1.98 µM; Kd [3, 13]: 24.4 ± 1.32 µM |
| CCCCCCCCC [Nonane] | – | – | – | > 50 µM | > 50 µM | > 50 µM | – |
| CCCCC/C=C\CCO [(Z)-3-Nonen-1-ol] | 21.5 ± 1.17 µM | 26.4 ± 1.87 µM | 25.5 ± 1.67 µM | – | – | – | – |
| CCCCCCCC(C)=O [2-Nonanone] | – | 42.4 ± 2.21 µM | – | > 50 µM | – | > 50 µM | – |
| C=CC(C)(O)CCC=C(C)C (stereo not drawn) [Linalool] | – | – | – | – | – | – | Kd [1, 14]: > 50 µM; Kd [2, 12]: 46.2 ± 2.35 µM; Kd [3, 16]: > 50 µM |
| CCCCCCCCCCCC [Dodecane] | – | – | – | > 50 µM | > 50 µM | > 50 µM | – |
| COC(=O)Cc1ccccc1 [Methyl phenylacetate] | – | – | – | – | – | – | Kd [1, 11]: 32.1 ± 1.85 µM; Kd [2, 12]: 30.6 ± 1.92 µM; Kd [3, 13]: 22.2 ± 0.87 µM |
| CC(C)=CCCC(C)CCO (stereo not drawn) [(-)-β-Citronellol] | – | – | 43.5 ± 0.99 µM | > 50 µM | > 50 µM | – | – |
